Data set [1] concerns the target ErbB2 insYVMA (HER2-YVMA, SEQ ID NO: 2) (Homo sapiens, UniProt P04626, INS775YVMA/P1170A). The data set is described as follows: biochemical. Particulars: ErbB2 insYVMA enzyme assay; read-out: Assay 1 IC50.
Data set [2] has as its target ErbB2 WT (Homo sapiens (Human), UniProt P04626). The data set can be described thus: ErbB enzyme assay (CisBio HTRF KinEASE-TK), Assay 2. The class given is biochemical. In short, it runs like this: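 ErbB2 phosphorylates 250 nM biotin-TK substrate at 1 mM ATP in 25 mM HEPES pH 7.4, 10 mM MgCl2, 0.01% Triton X-100 and 2% DMSO, for 30 min at 22 °C. Product is detected by HTRF with Sa-XL665 and TK-Ab-Cryptate. Percent of control is set by DMSO-only wells and pre-quenched wells.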
(In TR-FRET formats the signal depends on donor and acceptor labels being close together.)

Data set [3] deals with EGFR (Homo sapiens (Human), UniProt P00533). The data set is described as follows: ErbB enzyme assay (CisBio HTRF KinEASE-TK), Assay 3. The class given is biochemical. In short, it runs like this: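 Kinase incubated 30 min at 22 °C with 250 nM biotinylated TK substrate, 1 mM ATP and serially diluted compound in 25 mM HEPES pH 7.4, 10 mM MgCl2, 0.01% Triton X-100, 2% DMSO. Phosphorylation read by HTRF (Sa-XL665/TK-Ab-Cryptate); IC50 from 4-parameter fit of percent of control.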
Chain of EGFR (P00533 25-1210): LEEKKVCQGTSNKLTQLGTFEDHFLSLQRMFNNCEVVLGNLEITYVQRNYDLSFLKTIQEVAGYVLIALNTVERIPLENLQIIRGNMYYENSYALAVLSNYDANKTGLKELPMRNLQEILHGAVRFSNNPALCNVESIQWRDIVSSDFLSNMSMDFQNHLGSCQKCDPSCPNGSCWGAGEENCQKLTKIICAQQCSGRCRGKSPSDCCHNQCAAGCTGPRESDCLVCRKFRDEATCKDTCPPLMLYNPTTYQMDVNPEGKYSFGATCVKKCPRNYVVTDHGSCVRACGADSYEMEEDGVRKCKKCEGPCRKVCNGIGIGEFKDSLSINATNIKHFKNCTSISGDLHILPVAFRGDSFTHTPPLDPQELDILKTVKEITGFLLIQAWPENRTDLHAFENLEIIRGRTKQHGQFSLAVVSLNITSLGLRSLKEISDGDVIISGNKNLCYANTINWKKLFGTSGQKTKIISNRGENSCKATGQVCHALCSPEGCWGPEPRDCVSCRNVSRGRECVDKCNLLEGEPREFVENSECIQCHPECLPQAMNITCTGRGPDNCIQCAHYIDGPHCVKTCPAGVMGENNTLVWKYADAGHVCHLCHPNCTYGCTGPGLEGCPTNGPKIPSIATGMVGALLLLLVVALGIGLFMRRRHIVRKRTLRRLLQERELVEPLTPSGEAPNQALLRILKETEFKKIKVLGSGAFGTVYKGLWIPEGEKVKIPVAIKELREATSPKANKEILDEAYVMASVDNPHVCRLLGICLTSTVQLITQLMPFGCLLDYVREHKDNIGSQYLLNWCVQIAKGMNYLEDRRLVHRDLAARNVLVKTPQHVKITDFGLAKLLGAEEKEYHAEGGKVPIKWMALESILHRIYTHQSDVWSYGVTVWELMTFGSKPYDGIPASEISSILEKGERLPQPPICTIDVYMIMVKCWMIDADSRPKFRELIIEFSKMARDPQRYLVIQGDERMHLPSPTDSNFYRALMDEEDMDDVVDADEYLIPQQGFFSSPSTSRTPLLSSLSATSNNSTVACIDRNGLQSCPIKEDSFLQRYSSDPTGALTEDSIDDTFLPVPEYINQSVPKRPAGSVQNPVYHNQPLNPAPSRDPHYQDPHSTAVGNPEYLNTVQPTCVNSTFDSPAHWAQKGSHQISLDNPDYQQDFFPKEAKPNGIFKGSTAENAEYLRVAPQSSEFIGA

In data set [4] the target is ErbB2 with Exon 20 YVMA insertion (HER2-YVMA) (Homo sapiens (Human), UniProt P04626, INS775YVMA). The data set is described as follows: Cellular phosphorylation assay, constitutive ErbB2 phosphorylation (Y1196) in engineered NIH 3T3 cells, Assay 4. The class given is cell-based. The method, boiled down:
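Engineered NIH 3T3 cells expressing HER2-YVMA treated with compounds 1 h at 37 °C, then formaldehyde-fixed and methanol-permeabilized. pErbB2 Y1196 detected by in-cell infrared immunofluorescence, normalized to GAPDH. IC50 from the normalized curves.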

Data set [5] concerns the target EGFR wild type (EGFR WT) (Homo sapiens (Human), UniProt P00533). The data set can be described thus: Cellular phosphorylation assay, EGF-stimulated EGFR phosphorylation in engineered NIH 3T3 cells, Phospho-EGFR DuoSet IC ELISA, Assay 5. The class given is cell-based. The method, boiled down:
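NIH 3T3 cells expressing EGFR WT (20,000/well, attached overnight) were exposed to serially diluted compound for 1 h at 37 °C, then stimulated with 100 ng/ml rEGF for 10 min. Phospho-EGFR in lysates measured by sandwich ELISA optical density; IC50 from curves.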
On the technique in general: In an ELISA, binding on a coated surface is turned into a signal by an enzyme label.

In data set [6] the target is MDR1 (P-gp) (Homo sapiens (Human), UniProt P08183). The data set is described as follows: MDR1 transfected MDCKII canine Mdr1 knockout permeability/efflux, Assay 7. The note with it: dog, MDCK-MDR1.
Chain of MDR1 (P-gp) (P08183 whole entry): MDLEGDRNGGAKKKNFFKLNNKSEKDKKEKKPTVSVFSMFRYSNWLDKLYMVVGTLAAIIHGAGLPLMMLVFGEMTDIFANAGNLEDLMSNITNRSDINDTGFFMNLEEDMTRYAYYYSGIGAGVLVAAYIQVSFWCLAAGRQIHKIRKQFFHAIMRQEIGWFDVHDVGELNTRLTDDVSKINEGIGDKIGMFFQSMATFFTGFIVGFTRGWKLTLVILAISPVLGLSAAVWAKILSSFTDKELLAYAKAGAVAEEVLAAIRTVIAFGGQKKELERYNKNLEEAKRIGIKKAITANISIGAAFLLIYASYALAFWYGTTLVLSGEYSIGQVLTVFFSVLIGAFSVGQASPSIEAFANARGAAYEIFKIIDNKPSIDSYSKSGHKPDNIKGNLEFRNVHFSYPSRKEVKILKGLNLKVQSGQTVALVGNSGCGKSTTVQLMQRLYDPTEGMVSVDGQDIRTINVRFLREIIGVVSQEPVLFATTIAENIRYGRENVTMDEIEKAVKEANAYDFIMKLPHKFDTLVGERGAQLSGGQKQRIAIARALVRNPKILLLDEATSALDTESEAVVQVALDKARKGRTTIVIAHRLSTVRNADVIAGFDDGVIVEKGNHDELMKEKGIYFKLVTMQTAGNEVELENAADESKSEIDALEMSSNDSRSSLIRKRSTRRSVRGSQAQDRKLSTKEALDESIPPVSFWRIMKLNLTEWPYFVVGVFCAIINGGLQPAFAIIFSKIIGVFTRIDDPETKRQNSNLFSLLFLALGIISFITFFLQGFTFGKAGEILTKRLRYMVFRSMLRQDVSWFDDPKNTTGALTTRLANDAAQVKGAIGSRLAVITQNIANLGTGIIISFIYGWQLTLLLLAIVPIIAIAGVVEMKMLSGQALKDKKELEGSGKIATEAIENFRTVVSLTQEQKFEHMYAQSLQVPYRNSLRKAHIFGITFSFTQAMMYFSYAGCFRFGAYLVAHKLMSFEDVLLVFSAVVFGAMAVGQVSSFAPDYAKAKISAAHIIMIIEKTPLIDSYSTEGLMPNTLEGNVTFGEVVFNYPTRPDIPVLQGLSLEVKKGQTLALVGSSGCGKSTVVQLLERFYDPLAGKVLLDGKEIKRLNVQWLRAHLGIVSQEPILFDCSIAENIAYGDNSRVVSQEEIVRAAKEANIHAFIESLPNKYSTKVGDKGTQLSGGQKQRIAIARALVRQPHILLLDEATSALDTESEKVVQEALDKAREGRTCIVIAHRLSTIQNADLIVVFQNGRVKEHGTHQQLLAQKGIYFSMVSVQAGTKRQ
Protocol: Both MDR1 transfected LLC-PK1 (Assay 6) and MDR1 transfected MDCKII canine Mdr1 knockout cells (Assay 7) were cultured and plated according to manufacturer's recommendations with the exception that the passage media for the MDR1 transfected LLC-PK1 cell line contained only 2% fetal bovine serum so as to extend passage time out to seven days.
Both positive and negative controls were used to assess functionality of P-gp or BCRP efflux in the assays. Stock solutions for assay controls and the test article were prepared in DMSO for final test concentration of 1 μM. Final organic concentration in the assay was 1%. All dosing solutions contained 10 μM lucifer yellow to monitor MDCKII cell monolayer integrity.
For the apical to basolateral determination (A to B), 75 μL of the test article in transport buffer were added to the apical side of the individual transwells and 250 μL of basolateral media, without compound or lucifer yellow, were added to each well. For the basolateral to apical determination (B to A), 250 μL of test article in transport buffer were added to each well and 75 μL transport buffer, without compound or lucifer yellow, were added to each transwell. All tests were performed in triplicate, and each compound was tested for both apical to basolateral and basolateral to apical transport. The plates were incubated for 2 hours on a Lab-Line Instruments Titer Orbital Shaker (VWR, West Chester, PA) at 50 rpm and 37° C. with 5% CO2. All culture plates were removed from the incubator, 50 μL of media were removed from the apical and basolateral portion of each well, and added to 150 μL of 1 μM labetalol in 2:1 acetonitrile (ACN): H2O, v/v.
The plates were read using a Molecular Devices (Sunnyvale, CA) Gemini Fluorometer to evaluate the lucifer yellow concentrations at excitation/emission wavelengths of 425/535 nm. These values were accepted when found to be below 2% for apical to basolateral and 5% basolateral to apical flux across the MDR1-transfected LLC-PK1 or BCRP-transfected MDCKII cell monolayers. The plates were sealed, and the contents of each well analyzed by LC MS/MS. The compound concentrations were determined from the ratio of the peak areas of the compound to the internal standard (labetalol) in comparison to the dosing solution.
A MDS Sciex API 4000 (Applied Biosystems, Foster City, CA) mass spectrometer was used for detection of the analytes in the ion spray positive mode. Analyte responses were measured by multiple reaction monitoring (“MRM”) of transitions unique to each compound (the protonated precursor ion and selected product ions for each test article and m/z 329 to m/z 162 for labetalol, the internal standard.
The total run time, including re-equilibration, for a single injection was 1.2 minutes. […] The total run time, including re-equilibration, for a single injection was 0.61 minutes.
An efflux ratio is calculated from the mean apical to basolateral (A-B) Papp data and basolateral to apical (B-A) Papp data: Efflux ratio=Papp(B−A)/Papp(A−B)
In data set [7] the target is BCRP (Homo sapiens (Human), UniProt Q9UNQ0). The data set can be described thus: BCRP transfected MDCKII canine Mdr1 knockout permeability/efflux, Assay 9. The note with it: dog.
[8] abbreviates: Assay 9 Pe Ratio, efflux ratio Papp(B-A)/Papp(A-B), BCRP transfected MDCKII canine Mdr1 knockout.

Each structure is given as a SMILES string. Where only a bound is given, the exact number is not on record here.

Chain of ErbB2 with Exon 20 YVMA insertion (HER2-YVMA) (P04626 other isoform, or with tags, fused parts or gaps ins YVMA behind 775): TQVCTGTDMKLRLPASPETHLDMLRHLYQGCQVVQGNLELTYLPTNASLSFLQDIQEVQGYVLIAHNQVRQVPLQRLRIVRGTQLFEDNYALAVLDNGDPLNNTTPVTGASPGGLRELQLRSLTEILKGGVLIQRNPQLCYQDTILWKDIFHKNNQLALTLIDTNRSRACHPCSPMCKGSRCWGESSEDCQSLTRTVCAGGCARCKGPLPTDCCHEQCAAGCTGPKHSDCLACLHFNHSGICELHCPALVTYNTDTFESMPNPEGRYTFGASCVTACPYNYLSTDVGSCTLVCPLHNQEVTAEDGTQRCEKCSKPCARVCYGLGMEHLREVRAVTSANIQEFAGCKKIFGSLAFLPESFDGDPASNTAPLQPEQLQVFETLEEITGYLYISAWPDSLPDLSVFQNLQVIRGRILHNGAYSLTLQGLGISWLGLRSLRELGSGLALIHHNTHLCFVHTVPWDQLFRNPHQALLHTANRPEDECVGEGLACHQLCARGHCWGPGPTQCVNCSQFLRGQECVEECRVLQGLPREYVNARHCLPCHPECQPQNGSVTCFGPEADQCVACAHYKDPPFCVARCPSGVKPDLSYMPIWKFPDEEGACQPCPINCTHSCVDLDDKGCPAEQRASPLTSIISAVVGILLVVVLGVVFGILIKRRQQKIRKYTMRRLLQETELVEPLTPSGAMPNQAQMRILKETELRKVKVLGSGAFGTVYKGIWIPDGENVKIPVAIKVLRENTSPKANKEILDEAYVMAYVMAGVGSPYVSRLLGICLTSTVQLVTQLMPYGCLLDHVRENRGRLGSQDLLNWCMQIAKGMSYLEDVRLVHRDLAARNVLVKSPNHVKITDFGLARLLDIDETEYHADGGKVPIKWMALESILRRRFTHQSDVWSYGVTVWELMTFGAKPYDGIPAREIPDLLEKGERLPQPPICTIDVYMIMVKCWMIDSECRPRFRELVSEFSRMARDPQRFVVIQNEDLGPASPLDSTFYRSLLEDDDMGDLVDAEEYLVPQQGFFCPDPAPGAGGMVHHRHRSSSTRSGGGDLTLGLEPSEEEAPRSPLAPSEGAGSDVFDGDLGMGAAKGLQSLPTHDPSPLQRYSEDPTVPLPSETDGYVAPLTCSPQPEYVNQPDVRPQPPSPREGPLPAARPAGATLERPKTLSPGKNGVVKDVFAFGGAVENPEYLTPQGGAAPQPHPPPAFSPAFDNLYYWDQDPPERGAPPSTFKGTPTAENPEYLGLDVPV
Chain of EGFR wild type (EGFR WT) (P00533 25-1210): as the sequence (P00533 25-1210) above

Usually IC50 stands for the concentration that inhibits the measured activity by half. For orientation: efflux ratio means a quotient of directional permeabilities that is used to spot active efflux. Regarding `CO[C@@H]1CN(c2ncc3ncnc(Nc4ccc(Oc5ccc6c(c5)ncn6C)c(C)c4)c3n2)C[C@@H]1O` [Example 194, (3S,4R)-4-methoxy-1-(8-((3-methyl-4-((1-methyl-1H-benzo[d]imidazol-5-yl)oxy)phenyl)amino)pyrimido[5,4-d]pyrimidin-2-yl)pyrrolidin-3-ol], the IC50 in data set [1] is 17.8 nM; in data set [2], 23.5 nM; in data set [3] it was 8730 nM; in data set [4] it was 44.5 nM; in data set [5] it was at least 5000 nM. In addition, the efflux ratio at 2 h, 1 μM in data set [6] amounted to 1.9; in data set [7] (setting [8]), 32.4.

For `Cc1cc(Nc2ncnc3cnc(N4CCC[C@@](C)(O)C4)nc23)ccc1Oc1ccc2c(c1)ncn2C` [Example 196, (R)-3-methyl-1-(8-((3-methyl-4-((1-methyl-1H-benzo[d]imidazol-5-yl)oxy)phenyl)amino)pyrimido[5,4-d]pyrimidin-2-yl)piperidin-3-ol], the IC50 in data set [1] is 8.2 nM; in data set [2], 9.1 nM; in data set [3], 883 nM; in data set [4] it was 8.7 nM; in data set [5], at least 5000 nM. Also, the efflux ratio at 2 h, 1 μM in data set [6] stood at 1.6; in data set [7] (setting [8]) it was 13.2.

`CO[C@H]1CN(c2ncc3ncnc(Nc4ccc(Oc5ccc6c(c5)ncn6C)c(C)c4)c3n2)C[C@H]1O` [Example 197, (3R,4S)-4-methoxy-1-(8-((3-methyl-4-((1-methyl-1H-benzo[d]imidazol-5-yl)oxy)phenyl)amino)pyrimido[5,4-d]pyrimidin-2-yl)pyrrolidin-3-ol]: the IC50 in data set [1] was 14.1 nM; in data set [2] it was 21 nM; in data set [3], 8640 nM; in data set [4], 44.9 nM; in data set [5], at least 5000 nM. Besides, the results for the efflux ratio at 2 h, 1 μM in data set [6] and in data set [7] (setting [8]) were 1.8 and 35.7, respectively.

In the case of `Cc1cc(Nc2ncnc3cnc(N4C[C@H](O)C(F)(F)C4)nc23)c(F)cc1Oc1ccc2c(c1)ncn2C` [Example 202, (S)-4,4-difluoro-1-(8-((2-fluoro-5-methyl-4-((1-methyl-1H-benzo[d]imidazol-5-yl)oxy)phenyl)amino)pyrimido[5,4-d]pyrimidin-2-yl)pyrrolidin-3-ol], the IC50 in data set [1] was 25.7 nM; in data set [2], 31.1 nM; in data set [3], at least 10000 nM; in data set [4], 49.2 nM; in data set [5], at least 5000 nM. The efflux ratio at 2 h, 1 μM amounted to 1.2 in data set [6] and 6.4 in data set [7] (setting [8]).

Take `Cc1cc(Nc2ncnc3cnc(N4CC5(C4)CC(O)(C(F)F)C5)nc23)ccc1Oc1ccc2c(c1)ncn2C` [Example 210, 6-(difluoromethyl)-2-(8-((3-methyl-4-((1-methyl-1H-benzo[d]imidazol-5-yl)oxy)phenyl)amino)pyrimido[5,4-d]pyrimidin-2-yl)-2-azaspiro[3.3]heptan-6-ol]: the IC50 is 40.5 nM in data set [1]; 30.2 nM in data set [2]; at least 10000 nM in data set [3]; 27 nM in data set [4]; at least 5000 nM in data set [5]. The results for the efflux ratio at 2 h, 1 μM in data set [6] and in data set [7] were 1.7 and 36.8, respectively.

With `Cc1cc(Nc2ncnc3cnc(N4C[C@@H](O)C5(CC5)C4)nc23)ccc1Oc1ccc2c(c1)ncn2C` [Example 211, (S)-5-(8-((3-methyl-4-((1-methyl-1H-benzo[d]imidazol-5-yl)oxy)phenyl)amino)pyrimido[5,4-d]pyrimidin-2-yl)-5-azaspiro[2.4]heptan-7-ol], the IC50 in data set [1] was 10.9 nM; in data set [2] it was 31 nM; in data set [3] it was 3140 nM; in data set [4], 14.8 nM; in data set [5], at least 5000 nM. Besides, the efflux ratio at 2 h, 1 μM in data set [6] was 3.3; in data set [7], 25.2.

Regarding `Cc1cc(Nc2ncnc3cnc(N4C[C@H](O)C5(CC5)C4)nc23)ccc1Oc1ccc2c(c1)ncn2C` [Example 212, (R)-5-(8-((3-methyl-4-((1-methyl-1H-benzo[d]imidazol-5-yl)oxy)phenyl)amino)pyrimido[5,4-d]pyrimidin-2-yl)-5-azaspiro[2.4]heptan-7-ol], the IC50 in data set [1] was 12.8 nM; in data set [2] it was 22.9 nM; in data set [3], 2410 nM; in data set [4], 10.3 nM; in data set [5] it was at least 5000 nM. Besides, the efflux ratio at 2 h, 1 μM was 2.8 in data set [6] and 31.4 in data set [7].

As to `Cc1cc(Nc2ncnc3cnc(N4CC[C@@](C)(O)C4)nc23)c(F)cc1Oc1ccc2c(c1)ncn2C` [Example 214, (R)-1-(8-((2-fluoro-5-methyl-4-((1-methyl-1H-benzo[d]imidazol-5-yl)oxy)phenyl)amino)pyrimido[5,4-d]pyrimidin-2-yl)-3-methylpyrrolidin-3-ol], the IC50 in data set [1] was 15.4 nM; in data set [2], 46.6 nM; in data set [3], at least 10000 nM; in data set [4], 28.1 nM; in data set [5] it was at least 5000 nM. Besides, the efflux ratio at 2 h, 1 μM was determined as 1.5 in data set [6] and 8.8 in data set [7] (setting [8]).

With `Cc1cc(Nc2ncnc3cnc(N4CCC[C@@](C)(O)C4)nc23)c(F)cc1Oc1ccc2c(c1)ncn2C` [Example 218, (R)-1-(8-((2-fluoro-5-methyl-4-((1-methyl-1H-benzo[d]imidazol-5-yl)oxy)phenyl)amino)pyrimido[5,4-d]pyrimidin-2-yl)-3-methylpiperidin-3-ol], the IC50 in data set [1] was 41.6 nM; in data set [2], 40.3 nM; in data set [3], at least 10000 nM; in data set [4], 43.8 nM; in data set [5] it was at least 5000 nM. Further, the values for the efflux ratio at 2 h, 1 μM in data set [6] and in data set [7] (setting [8]) were 1.5 and 2.4, respectively.

As to `Cc1cc(Nc2ncnc3cnc(N4CCO[C@H](C)C4)nc23)ccc1Oc1ccc2c(c1)ncn2C` [Example 265], the IC50 in data set [1] is 46.5 nM; in data set [2] it was 45.6 nM; in data set [3], 5350 nM; in data set [4] it was 16.8 nM; in data set [5], at least 5000 nM. Moreover, the efflux ratio at 2 h, 1 μM in data set [6] stood at 1.1; in data set [7] (setting [8]), 1.8.

For `Cc1cc(Nc2ncnc3cnc(N4CCC(F)(F)C4)nc23)ccc1Oc1ccc2c(c1)ncn2C` [Example 299], the IC50 in data set [1] was 49.8 nM; in data set [2], 146 nM; in data set [3], at least 10000 nM; in data set [4] it was 30.5 nM; in data set [5], at least 5000 nM. In addition, the efflux ratio at 2 h, 1 μM in data set [6] amounted to 0.4; in data set [7] (setting [8]), 1.2.

On to `Cc1c(Oc2ccn3ncnc3c2)ccc(Nc2ncnc3cnc(N4CCC(C)(O)CC4)nc23)c1F` [Example 304], for which the concentration for half-maximal inhibition (IC50) is 11.7 nM in data set [1]; 48.6 nM in data set [2]; 2840 nM in data set [3]; 114 nM in data set [4]; at least 5000 nM in data set [5]. Besides, the efflux ratio at 2 h, 1 μM in data set [6] turned out to be 1.2; in data set [7] (setting [8]) it was 7.3.

Turning to `Cc1cc(Nc2ncnc3cnc(N4C[C@@H]5COC[C@@H]54)nc23)ccc1Oc1ccc2c(c1)ncn2C` [Example 348], the IC50 was 40.1 nM in data set [1]; 69.1 nM in data set [2]; at least 10000 nM in data set [3]; 14.5 nM in data set [4]; at least 5000 nM in data set [5]. For the same compound, the efflux ratio at 2 h, 1 μM came to 1.4 in data set [6] and 5 in data set [7] (setting [8]).

Values taken from patent publication US11834453B2, “Substituted pyrimido[5,4-d]pyrimidines as HER2 inhibitors” (Array BioPharma Inc., priority 2020, dated 2023).
